The record followed here is patent US20260097017A1, “TASIPIMIDINE AND CYP2D6 INHIBITOR COMBINATION TREATMENT” (ORION CORPORATION, priority 2022, published 2026).

In one series the target is T1, CYP1A1 (Homo sapiens, UniProt P04798).
T1 construct: purchased; host or cells: baculovirus-transfected insect cells
T1 sequence (P04798 1-512): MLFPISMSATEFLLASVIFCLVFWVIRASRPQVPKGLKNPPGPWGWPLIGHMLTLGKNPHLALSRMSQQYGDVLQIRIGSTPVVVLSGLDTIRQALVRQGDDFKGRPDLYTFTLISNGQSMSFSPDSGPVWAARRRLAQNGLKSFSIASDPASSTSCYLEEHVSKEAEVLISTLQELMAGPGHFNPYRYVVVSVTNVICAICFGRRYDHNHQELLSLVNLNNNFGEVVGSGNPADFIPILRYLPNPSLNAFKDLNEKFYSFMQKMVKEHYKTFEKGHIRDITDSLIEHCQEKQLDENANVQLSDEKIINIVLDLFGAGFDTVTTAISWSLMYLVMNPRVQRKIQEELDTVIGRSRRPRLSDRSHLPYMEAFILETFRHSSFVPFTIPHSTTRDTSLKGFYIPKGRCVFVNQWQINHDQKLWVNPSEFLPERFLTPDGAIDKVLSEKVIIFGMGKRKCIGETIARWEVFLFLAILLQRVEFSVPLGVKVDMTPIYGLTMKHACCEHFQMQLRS
Description: Recombinant human CYP incubations (enzyme identification). It counts as in vitro ADME. The method, then:
(§1) The objective of these studies was to identify enzymes involved in the metabolism of tasipimidine in human. The test substance tasipimidine and the reference compounds for main tasipimidine metabolites 1-(4,5-dihydro-1H-imidazol-2-yl) isochroman-5-ol (metabolite 1), 2-(5-methoxyisochroman-1-yl)-1H-imidazole (metabolite 2), and 1-(1H-imidazol-2-yl) isochroman-5-ol (metabolite 3) were supplied by Orion Pharma. To further support the findings of recombinant enzyme incubations tasipimidine was incubated with human hepatocytes with two enzyme inhibitors, i.e. 1-aminobenzotriazole (ABT, non-selective CYP inhibitor), and quinidine (CYP2D6 inhibitor).
(§2) The analysis for disappearance of tasipimidine and the identification of the formed metabolites were carried out by using a high-resolution liquid chromatographic-mass spectrometer supported by accurate masses (UPLC-HRMS). Firstly, metabolic stability of tasipimidine in different in vitro matrices was determined by monitoring the disappearance of the parent compound as a function of time. Moreover, structures of the formed metabolites were characterized from their respective product ion spectra. The synthetized reference compounds of the metabolites were used to confirm the identification of those specific metabolites.

The target in the next series is T2, CYP1A2 (Homo sapiens, UniProt P05177).
T2 construct: purchased; host or cells: baculovirus-transfected insect cells
T2 sequence (P05177 1-516): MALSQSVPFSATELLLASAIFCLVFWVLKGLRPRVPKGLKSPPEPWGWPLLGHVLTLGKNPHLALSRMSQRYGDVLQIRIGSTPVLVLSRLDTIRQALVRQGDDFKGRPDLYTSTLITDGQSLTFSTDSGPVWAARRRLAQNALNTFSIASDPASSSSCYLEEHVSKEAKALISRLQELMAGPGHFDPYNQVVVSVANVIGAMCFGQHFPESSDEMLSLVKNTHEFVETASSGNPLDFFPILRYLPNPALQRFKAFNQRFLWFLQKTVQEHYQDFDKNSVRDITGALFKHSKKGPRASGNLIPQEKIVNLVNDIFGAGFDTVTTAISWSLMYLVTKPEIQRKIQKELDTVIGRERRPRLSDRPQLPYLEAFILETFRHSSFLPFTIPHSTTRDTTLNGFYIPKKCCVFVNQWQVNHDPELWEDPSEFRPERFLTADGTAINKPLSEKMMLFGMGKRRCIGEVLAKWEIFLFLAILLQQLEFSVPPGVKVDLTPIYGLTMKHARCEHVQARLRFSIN
The series is described as above. The series is classed as in vitro ADME. The procedure:
as §1, §2

A short description of series [1]: Renal clearance (PBPK input parameter). Particulars: human, in vivo; input parameter of the PBPK model. An excerpt: (§3) A physiologically based pharmacokinetic (PBPK) model was used to simulate the plasma exposure of tasipimidine in fasted healthy 30 years old males of 70 kg with different CYP2D6 phenotypes. Simulations were produced with the commercial GastroPlus® 9.8.2 software.

Series [2] in a line: Blood to plasma ratio and fraction unbound in plasma (PBPK input parameters). It counts as in vitro ADME. Particulars: human, input parameter of the PBPK model.
Description: as §3

The fraction unbound is free concentration divided by total concentration. For the compound `COc1cccc2c1CCOC2C1=NCCN1` (centres unmarked) [tasipimidine, 2-(5-methoxyisochroman-1-yl)-4,5-dihydro-1H-imidazole], the “contribution of enzyme to tasipimidine metabolism” value at CYP1A1 and at CYP1A2 was “minor contributors” each time. Also, the CL renal in series [1] is 105 mL/min. For the same compound, the blood plasma ratio in series [2] (blood and plasma) was determined as 1.13. Moreover, the fraction unbound in series [2] (plasma) was 0.86.
